The source of these data is the NIST ThermoML archive (doi:10.1016/j.tca.2008.03.014).

± gives the expanded uncertainty stated by the source.

The conditions of this series: Crystal; DTA.

With `[I-].[Rb+]` [rubidium iodide (RbI)], the Normal melting temperature is 650.00 ± 1 °C.
Then `[F-].[Rb+]` [rubidium fluoride (RbF)], with 790.1 ± 1 °C.
